Test results taken from ChEMBL document CHEMBL1667779, “Structure-based parallel medicinal chemistry approach to improve metabolic stability of benzopyran COX-2 inhibitors” (Bioorg Med Chem Lett, 2011).

Legend:
[1] = molecular target: Prostaglandin G/H synthase 1 (Homo sapiens, UniProt P23219)
Homo sapiens = species on record: Homo sapiens; experiment: Selectivity ratio of IC50 for human COX1 to IC50 for human COX2
[2] = molecular target: T1, Prostaglandin G/H synthase 2 (Homo sapiens, UniProt P35354)
T1 sequence (P35354 whole entry): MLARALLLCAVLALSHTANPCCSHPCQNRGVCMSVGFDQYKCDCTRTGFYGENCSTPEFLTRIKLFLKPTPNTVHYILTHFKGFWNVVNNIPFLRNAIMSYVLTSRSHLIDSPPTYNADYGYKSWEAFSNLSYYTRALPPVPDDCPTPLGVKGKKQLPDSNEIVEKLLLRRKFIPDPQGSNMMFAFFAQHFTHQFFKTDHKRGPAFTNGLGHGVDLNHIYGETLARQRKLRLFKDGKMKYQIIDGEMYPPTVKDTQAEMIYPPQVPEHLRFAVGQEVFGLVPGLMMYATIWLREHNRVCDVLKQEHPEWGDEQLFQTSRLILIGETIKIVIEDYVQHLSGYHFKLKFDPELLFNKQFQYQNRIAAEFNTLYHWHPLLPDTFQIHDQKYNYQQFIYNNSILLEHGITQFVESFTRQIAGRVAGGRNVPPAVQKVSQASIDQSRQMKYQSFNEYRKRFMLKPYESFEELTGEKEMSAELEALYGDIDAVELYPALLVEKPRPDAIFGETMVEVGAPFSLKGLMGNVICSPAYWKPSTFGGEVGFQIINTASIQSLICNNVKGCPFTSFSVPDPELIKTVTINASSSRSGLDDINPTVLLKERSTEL

[3] = Metabolic stability of the compound in human liver microsomes assessed as compound remaining at 2 mM after 30 mins by LC/MS analysis; assay type: ADME, Microsome; conditions: read-out: Stability
[4] = Metabolic stability of the compound in rat liver microsomes assessed as compound remaining at 2 mM after 30 mins by LC/MS analysis; assay type: ADME, Microsome; conditions: read-out: Stability
[5] = Half life in human; assay type: ADME, organism-based; conditions: in vivo
[6] = Solubility of the compound; assay type: physicochemical; conditions: read-out: Stability

Prostaglandin G/H synthase 1, sequence (P23219 whole entry): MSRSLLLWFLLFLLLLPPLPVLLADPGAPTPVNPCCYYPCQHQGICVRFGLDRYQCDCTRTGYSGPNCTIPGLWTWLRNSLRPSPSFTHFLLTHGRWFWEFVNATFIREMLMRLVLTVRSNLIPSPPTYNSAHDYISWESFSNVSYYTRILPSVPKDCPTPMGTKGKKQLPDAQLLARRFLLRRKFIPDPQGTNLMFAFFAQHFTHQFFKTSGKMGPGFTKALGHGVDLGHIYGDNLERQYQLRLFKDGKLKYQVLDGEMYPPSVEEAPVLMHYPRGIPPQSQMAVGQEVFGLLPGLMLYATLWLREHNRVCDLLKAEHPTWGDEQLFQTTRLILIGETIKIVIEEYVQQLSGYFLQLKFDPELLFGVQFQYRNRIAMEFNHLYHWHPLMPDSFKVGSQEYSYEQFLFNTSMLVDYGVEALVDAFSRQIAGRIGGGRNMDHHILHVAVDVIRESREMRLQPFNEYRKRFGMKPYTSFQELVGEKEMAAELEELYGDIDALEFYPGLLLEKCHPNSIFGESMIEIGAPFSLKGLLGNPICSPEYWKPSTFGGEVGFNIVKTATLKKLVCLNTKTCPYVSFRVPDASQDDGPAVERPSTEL

| IC50 [1] | Selectivity ratio (Homo sapiens) | IC50 [2] | remaining at 0.5 h [3] | remaining at 0.5 h [4] | half-life [5] | solubility [6] | SMILES |
| --- | --- | --- | --- | --- | --- | --- | --- |
| 0.242 µM | 11.4 | 0.0211 µM | 53% | 57% | – | – | O=C(O)C1=Cc2cc(Cl)cc(-c3ccc(Cl)cc3)c2OC1C(F)(F)F (stereo not drawn) |
| 4.34 µM | 42.1 | 0.103 µM | 18% | 60% | – | – | Cc1ccc(-c2cc(Cl)cc3c2OC(C(F)(F)F)C(C(=O)O)=C3)cc1 (stereo not drawn) |
| 1.39 µM | 0.764 | 1.82 µM | 93% | 53% | – | – | Nc1ccc(-c2cc(Cl)cc3c2OC(C(F)(F)F)C(C(=O)O)=C3)cc1 (stereo not drawn) |
| 2.91 µM | 0.84 | 3.48 µM | 91% | 94% | – | – | O=C(O)C1=Cc2cc(Cl)cc(-c3ccc(O)cc3)c2OC1C(F)(F)F (stereo not drawn) |
| 17.7 µM | 226 | – | 18% | 60% | – | – | CCc1ccc(-c2cc(Cl)cc3c2OC(C(F)(F)F)C(C(=O)O)=C3)cc1 (stereo not drawn) |
| – | < 0.007 | > 100 µM | – | – | – | – | O=C(O)C1=Cc2cc(Cl)cc(-c3ccc(F)cc3)c2OC1C(F)(F)F (stereo not drawn) |
| 2.44 µM | 0.38 | 6.38 µM | 93% | 75% | – | – | O=C(O)C1=Cc2cc(Cl)cc(-c3ccc(CO)cc3)c2OC1C(F)(F)F (stereo not drawn) |

Second part, the molecule before the results:

| SMILES | IC50 [1] | Selectivity ratio (Homo sapiens) | IC50 [2] | remaining at 0.5 h [3] | remaining at 0.5 h [4] | half-life [5] | solubility [6] |
| --- | --- | --- | --- | --- | --- | --- | --- |
| CC(C)Cc1ccc(-c2cc(Cl)cc3c2OC(C(F)(F)F)C(C(=O)O)=C3)cc1 (stereo not drawn) | 26.5 µM | 2 | 13.4 µM | 88% | 96% | – | – |
| CS(=O)(=O)Nc1ccc(-c2cc(Cl)cc3c2OC(C(F)(F)F)C(C(=O)O)=C3)cc1 (stereo not drawn) | > 100 µM | > 2.5 | 40.1 µM | 100% | 53% | – | – |
| CCSc1ccc(-c2cc(Cl)cc3c2OC(C(F)(F)F)C(C(=O)O)=C3)cc1 (stereo not drawn) | – | – | 0.242 µM | 75% | 47% | – | – |
| O=C(O)C1=Cc2cc(Cl)cc(Cl)c2OC1C(F)(F)F (stereo not drawn) | – | – | – | 100% | 100% | 15 days | > 30 µM |
| O=C(O)C1=Cc2cc(Cl)cc(-c3ccccc3)c2OC1C(F)(F)F (stereo not drawn) | 1.54 µM | 8.2 | 0.188 µM | – | – | – | – |
| NS(=O)(=O)c1ccc(-c2cc(Cl)cc3c2OC(C(F)(F)F)C(C(=O)O)=C3)cc1 (stereo not drawn) | 91.4 µM | 120 | – | – | – | – | – |
| O=C(O)C1=Cc2cc(Cl)cc(-c3ccc(C(=O)O)cc3)c2OC1C(F)(F)F (stereo not drawn) | > 100 µM | – | > 100 µM | 90% | 91% | – | – |
| Cc1ccc(-c2cc(Cl)cc3c2OC(C(F)(F)F)C(C(=O)O)=C3)cc1F (stereo not drawn) | – | 375 | – | 31% | 55% | – | – |
| CS(=O)(=O)c1ccc(-c2cc(Cl)cc3c2OC(C(F)(F)F)C(C(=O)O)=C3)cc1 (stereo not drawn) | 3.87 µM | 0.182 | 21.3 µM | – | – | – | – |
| COc1ccc(-c2cc(Cl)cc3c2OC(C(F)(F)F)C(C(=O)O)=C3)cc1C (stereo not drawn) | > 100 µM | > 295 | 0.339 µM | 84% | 61% | – | – |
| CCOc1ccc(-c2cc(Cl)cc3c2OC(C(F)(F)F)C(C(=O)O)=C3)cc1 (stereo not drawn) | 32 µM | 90.1 | 0.355 µM | 91% | 82% | – | – |
